Measurements published in patent US20040162337A1, “Chemical compounds having therapeutic activities in treating cancer” (priority 2003, published 2004).
“Also recorded” adds a separate entry of the source.

Assays:
MDR KB-V1 cells [1] = test: Doxorubicin accumulation assay (flow cytometry), KB-V1; type: cell-based, human
Protocol: (§1) Data was collected with CellQuest Software and analysed with ModFitLT V2.0. Mean fluorescence intensities of 1×10^4 drug-treated cells were quantified and compared with the APC untreated cells. […] A negative control test was also performed.

P-glycoprotein (P-gp) = test: Western blotting of P-gp; type: cell-based, human; conditions: KB-3-1 and KB-V1 cells, 1× and 2× dose of LD50
Protocol: (§2) For protein analysis of P-gp and actin, cells were lysed in ice-cold lysis buffer (1% sodium deoxycholate, 0.1% SDS, 1% Triton X-100, 2 mM phenylmethylsulphonyl fluoride, 1% aprotinin). Total lysates were subjected to SDS/PAGE and electrotransferred to nitrocellulose membranes (Bio-Rad). Membranes were then incubated with anti-P-gp or anti-β-actin antibody (Calbiochem) in blocking buffer (10 mM Tris pH7.5, 100 mM NaCl, 0.1% Tween 20, 5% non-fat dry milk) for 1 hour at room temperature before incubation with horseradish-peroxidase-conjugated anti-(rabbit IgG) or anti-(mouse IgG) antibody (Gibco BRL) for 1 hour at room temperature. Immunobinding was detected by the ECL method (Amersham). β-actin polyclonal antibody (Oncogene Science, Uniondale, N.Y., USA) was used as internal standard. Drug-sensitive KB-3-1 was used as control experiments.

[2] = system: human carcinoma KB-3-1 cancer cell line; test: Sulfo-Rhodamine B (SRB) cytotoxicity assay, KB-3-1; type: cell-based; conditions: drug-sensitive KB-3-1 cells, 72 hours, median-effect plot
Protocol: Assays were carried out in triplicate against human carcinoma KB-3-1 cancer cell line. […] The treatment of KB-3-1 cancer cells lasted for 72 hours and the cell number in each sample was estimated by correlating to optical density (OD) at 515 nm. […] The median dose value was determined from plots of median effects and was equivalent to LD50 (Skehan P.; Storeng R.; Scudiero D.; Monks A.; McMahon J.; Vistica D; Warren J T.; Bokesch H.; Kenney S.; Boyd M R.; J Natl Cancer Inst 1990 82:1107-1112).

KB-3-1 cells [3] = test: Apoptosis study by DNA ladder, KB-3-1; type: cell-based, human; conditions: 24 hours
Protocol: In this experiment, three groups of KB-3-1 cells were treated for 24 hours at different concentrations (17.26 μM, 34.52 μM & 172.56 μM) of APC. A control group of KB-3-1 cells was treated as negative control for the same amount of time. Approximately 5×10^6 cells from each of the four groups were washed in phosphate buffered saline (PBS) and their genomic DNA was extracted using Apoptotic DNA Ladder Kit-Best. Nr. 1 835 246 (Roche) according to the manufacturer's manual. The extracted DNA was analyzed by electrophoresis in 2% agarose gel containing 0.1% ethidium bromide in tris galacial acetic acid (TAE) buffer for 30 minutes at 99v. DNA bands of the gel were observed and recorded by Multi-Imager (Bio-Rad, California, USA).
(§3) This experiment was a continuation of Experiment 7. Apoptotic studies by DNA ladder was carried out for 24 hours with drug treatment at different concentrations (17.26 μM, 34.52 μM & 172.56 μM) of APC. A total of eight groups of cells were used. 5×10^6 cells were washed in PBS. Their genomic DNA was extracted using Apoptotic DNA Ladder Kit-Best. Nr. 1 835 246 (Roche) according to Manufacturer's manual. DNA was analyzed by electrophoresis in 2% agarose gel containing 0.1% ethidium bromide in TAE buffer (99v, 30 min). DNA bands were observed and recorded by Multi-Imager (Bio-Rad, California, USA).

β-Actin = test: Reverse transcription-PCR of β-Actin (internal standard); type: cell-based, human; conditions: KB-3-1 and KB-V1 cells, 1× and 2× dose of LD50
Protocol: (§4) 1 μg of total RNA isolated from cells using High Pure™ RNA Isolation Kits (Roche) was incubated with 100 ng random primers (Gibco BRL) and DEPC-treated water (total volume 10 μl) for 10 min at 65° C., then for 5 min on ice. Reverse transcription mixture contained 4 μl of 5× reaction buffer (50 mM Tris-HCl, 100 mM NaCl, 1 mM EDTA, 10 mM DTE, 0.05% polydocanol v/v, 50% glycerol v/v, pH 8.4), 2 μl 10 mM dNTP, 2 μl 100 mM dithiothreitol and 1 μl 50 units/μl Expand™ Reverse Transcriptase (Roche). The reaction lasted for 1.5 hours at 42° C. PCR amplifications were carried out using Expand™ Long Template PCR System (Roche). The primers used were cDNA sequences of p-glycoprotein (P-gp) SEQ ID NO. 1 (sense strand) and SEQ ID NO. 2 (anti-sense strand); cDNA sequences of β-actin SEQ ID NO. 3 (sense strand) and SEQ ID NO. 4 (anti-sense strand). […] of [α-^32P]dATP was added to 25 μl amplification reaction mix. The PCR was performed in a Gene Cycler™ (Bio-Rad) for 27 cycles, consisting of 1 min at 94° C., 1 min at 57° C. and 1 min at 72° C. The samples were heated for 5 min at 94° C. before the first cycle, and the extension time was lengthened to 10 min during the last cycle. PCR products resulted therefrom were size-fractionated on 10% polyacrylamide gel. Autoradiography was carried out with BioMax film (Kodak). Drug-sensitive KB-3-1 was used as control experiments. […]

actin = test: Western blotting of actin; type: cell-based, human; conditions: KB-3-1 and KB-V1 cells, 1× and 2× dose of LD50
Protocol: as §2

MDR KB-V1 cells [4] = test: Sulfo-Rhodamine B (SRB) cytotoxicity assay, KB-V1; type: cell-based, human; conditions: 3-day dose-response
Protocol: In the following experiments, tests were conducted using the human cancer cell lines KB-3-1 and KB-V1. The MDR cancer cells KB-V1 were selected from drug sensitive KB-3-1 cells treated by vinblastine. The cell lines (American Type Culture Collection, MD, USA) were routinely grown in MEM (Gibco, MD, USA) containing 10% fetal bovine serum (FBS) and 1% antibiotic solution (Gibco, MD, USA), and 300 ng/ml of vinblastine for maintenance of drug resistance for KB-V1 cells. Cultures of the cells were maintained in a humidified 5% CO2 incubator.
The color intensity of SRB, positively correlated to number of cell, was estimated by correlating to OD at 515 nm. The concentration of DMSO and ethanol in the drug solvent of APC was 20 wt % and 80 wt % respectively. The concentration of DMSO in each culture sample was ≦0.1%.

MDR1 mRNA = test: Reverse transcription-PCR of MDR1; type: cell-based, human; conditions: KB-3-1 and KB-V1 cells, 1× and 2× dose of LD50
Protocol: as §4

KB-V1 cells = test: Apoptosis study by DNA ladder, KB-V1; type: cell-based, human; conditions: 24 hours
Protocol: as §3

MDR KB-V1 cells [5] = test: Combination Index (CI-isobologram) of APC and doxorubicin, KB-V1; type: cell-based, human; conditions: APC 2.0219 μM to 129.3996 μM with doxorubicin, particularly fractional kill greater than 50%
Excerpt: (§5) In this experiment, the CI-isobologram by Chou and Talalay was used to determine the Combination Index (CI) of APC and doxorubicin. In order to understand the synergistic effect of APC with a conventional cancer drug, a number of combinations of drug concentrations were used in the combination studies. A mutually non-exclusive equation was used to determine the CIs, and the equation is illustrated and explained in the Appendix section below. CI>1, CI=1, and CI<1 indicate antagonism, additive effect, or synergism, respectively. The explanation of the determination of combination indices (CI) is provided in the Appendix section towards the end of the description.
(§6) The Chou and Talalay (Chou T C; Talay P. Adv Enzyme Regul 1984 22:27-55) combination index CI-isobologram equation for two-drug combination is: [formula]
(§7) Firstly, the Din (Median Dose or LD50) and m of each treatment was determined according to the Median-Effect Plot. […] Combination Indices (CI) were calculated at various fractional kill (fa).
(§8) The CI-isobologram by Chou and Talalay was used to determine the Combination Indices (CI) of APC and doxorubicin. […] The mutually non-exclusive equations were used to determine the CIs and each CI was calculated from the mean affected fraction at each drug ratio concentration.

KB-3-1 cells [6] = test: Doxorubicin accumulation assay (flow cytometry), KB-3-1; type: cell-based, human; conditions: pre-treatment, then 2 μM doxorubicin 30 min
Protocol: as §1

KB-3-1 cells [7] = test: Combination Index (CI-isobologram) of APC and doxorubicin, KB-3-1; type: cell-based, human
Excerpt: as §5, §6, §7, §8

SMILES	accumulation of doxorubicin in cells (MDR KB-V1 cells [1]; KB-V1 cells, pre-treatment, then 2 μM doxorubicin 30 min)	increase of doxorubicin accumulation (MDR KB-V1 cells [1]; MDR KB-V1 cells, 6 hours incubation at LD50, then 2 μM doxorubicin 30 min)	level of P-gp proteins (P-glycoprotein (P-gp))	LD50 [2]	DNA ladder, state of DNA (KB-3-1 cells [3]; 17.26 μM)	apoptosis (DNA fragmentation, DNA ladder) (KB-3-1 cells [3]; 172.6 μM)	β-Actin mRNA level (β-Actin)	level of actin (actin)	LD50 (MDR KB-V1 cells [4])	MDR1 mRNA level (MDR1 mRNA)	DNA ladder, state of DNA (KB-V1 cells; 17.26 μM)	DNA ladder, state of DNA (KB-V1 cells; 172.6 μM)	synergism with doxorubicin (MDR KB-V1 cells [5])	accumulation of doxorubicin in cells (KB-3-1 cells [6])	synergism with doxorubicin (KB-3-1 cells [7]; APC 2.0219 μM to 129.3996 μM with doxorubicin)	Combination Index (CI) (KB-3-1 cells [7]; drug combination C (doxorubicin 0.0431 μM, APC 129.3996 μM), all fractional kill)
C/C=C(/C)C(=O)OC1C(OC(C)=O)c2c(ccc3ccc(=O)oc23)OC1(C)C (stereo not drawn) [APC, cis-3′-angeloyl-4′-acetoxy-khellactone]	substantially higher accumulation of doxorubicin	approximately 25%	lower	41.9153 ± 2.8016 µM	little affected	significantly more apoptosis	not affected	not affected	17.2656 ± 8.2441 µM	reduced significantly	slightly cut	cut in larger extent	relatively high synergistic interactions	more doxorubicin accumulated	relatively low synergism; also recorded: little or no synergistic interactions	greater than 1
COc1cccc2c1C(=O)c1c(O)c3c(c(O)c1C2=O)C[C@@](O)(C(=O)CO)C[C@@H]3O[C@H]1C[C@H](N)[C@H](O)[C@H](C)O1 [doxorubicin, reference compound]	–	–	–	–	–	–	–	–	3.0510 ± 0.2846 µM	–	–	–	–	–	–	–
